Ki and IC50 data for 16 molecules are collected here from patent publication US12528812B2 (Genentech, Inc., priority 2020, dated 2026).

For experiment [1], the target named is T1, recombinant human JAK1 kinase domain protein (Residues 854-1154) (Homo sapiens, UniProt P23458).
T1 construct: human JAK1 kinase domain protein (Residues 854-1154); purchased Proteros Biostructures GmbH (Martinsried, Germany); host or cells: insect cells
The experiment can be described thus: JAK1 biochemical assay (LabChip mobility shift, Ki). The settings on record: read-out: Biochem JAK1 Ki.

Experiment [2] concerns IL-13-stimulated STAT6 phosphorylation in human lung bronchial epithelial BEAS-2B cell line. In words: P-STAT6 BEAS-2B + IL-13 cell assay. It counts as cell-based. The settings on record: Homo sapiens, BEAS-2B, BEAS2B cells, IL13 stimulation; read-out: Cellular JAK1 PSTAT6 BEAS2B + IL13. The procedure, abridged: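 BEAS-2B cells grown 48 h at 37 °C, pre-treated 1 h with compound (10-point 1:2 dilution curve), then stimulated 15 min with human recombinant IL-13 (250 ng/mL stock). Lysate P-STAT6 (Tyr641) read by MSD sandwich ELISA with total-STAT6 capture; IC50 from four-parameter logistic fit of control-normalised data.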

In experiment [3] the target is Recombinant human JAK2 kinase domain protein (Residues 812-1132) (Homo sapiens, UniProt O60674). In words: JAK2 biochemical assay (LabChip mobility shift, Ki). The settings on record: Biochem JAK2 Ki.
Sequence of Recombinant human JAK2 kinase domain protein (Residues 812-1132) (O60674 812-1132): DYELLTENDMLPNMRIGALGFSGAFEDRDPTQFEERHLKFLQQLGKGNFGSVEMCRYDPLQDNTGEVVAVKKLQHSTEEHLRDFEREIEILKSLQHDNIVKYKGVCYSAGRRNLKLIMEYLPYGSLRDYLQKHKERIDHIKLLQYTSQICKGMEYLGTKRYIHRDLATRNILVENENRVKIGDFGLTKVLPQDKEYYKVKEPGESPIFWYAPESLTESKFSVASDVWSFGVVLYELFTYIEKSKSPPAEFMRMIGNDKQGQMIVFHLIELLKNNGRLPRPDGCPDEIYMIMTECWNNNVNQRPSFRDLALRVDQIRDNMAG

T1 sequence (P23458 854-1154): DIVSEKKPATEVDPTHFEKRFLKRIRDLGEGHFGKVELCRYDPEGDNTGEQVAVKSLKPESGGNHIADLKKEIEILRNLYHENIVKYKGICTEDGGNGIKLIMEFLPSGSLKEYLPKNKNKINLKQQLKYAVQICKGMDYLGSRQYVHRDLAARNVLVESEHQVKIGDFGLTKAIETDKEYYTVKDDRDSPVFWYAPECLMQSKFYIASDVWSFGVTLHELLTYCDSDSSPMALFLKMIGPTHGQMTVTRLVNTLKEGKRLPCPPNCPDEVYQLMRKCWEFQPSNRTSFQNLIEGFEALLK

As a reminder, the Ki is the dissociation constant of the complex between target and ligand, obtained from inhibition or displacement. For the molecule `Cn1cc(NC(=O)c2cnn3cccnc23)c(-c2cc(Oc3cccc(CN[C@H]4C[C@H](O)C4)c3)ccc2OC(F)F)n1` [Example 72, N-[3-[2-(difluoromethoxy)-5-[3-[[(3-hydroxycyclobutyl)amino]methyl]phenoxy]phenyl]-1-methyl-pyrazol-4-yl]pyrazolo[1,5-a]pyrimidine-3-carboxamide], the Ki in experiment [1] was found to be 0.91 nM; in experiment [3], 0.74 nM. Also, the IC50 in experiment [2] is 62 nM.
Take `CN(C)CCn1cc(Oc2ccc(OC(F)F)c(-c3nn(C)cc3NC(=O)c3cnn4cccnc34)c2)cn1` [Example 73, N-[3-[2-(difluoromethoxy)-5-[1-[2-(dimethylamino)ethyl]pyrazol-4-yl]oxy-phenyl]-1-methyl-pyrazol-4-yl]pyrazolo[1,5-a]pyrimidine-3-carboxamide]: the results for the Ki in experiment [1] and in experiment [3] were 1.6 nM and 1.7 nM, respectively. Also, the IC50 in experiment [2] was 95 nM.
Take `Cc1cc(Oc2ccc(OC(F)F)c(-c3nn(C)cc3NC(=O)c3cnn4cccnc34)c2)ccc1C(=O)N(C)C` [Example 74, N-[3-[2-(difluoromethoxy)-5-[4-(dimethylcarbamoyl)-3-methyl-phenoxy]phenyl]-1-methyl-pyrazol-4-yl]pyrazolo[1,5-a]pyrimidine-3-carboxamide]: the Ki in experiment [1] stood at 0.61 nM; in experiment [3] it was 0.26 nM. Moreover, in experiment [2], the IC50 was 30 nM.
The corresponding values for `Cn1cc(NC(=O)c2cnn3cccnc23)c(-c2cc(Oc3ccc4c(c3)CN(CCO)CC4)ccc2OC(F)F)n1` [Example 76, N-[3-[2-(difluoromethoxy)-5-[[2-(2-hydroxyethyl)-3,4-dihydro-1H-isoquinolin-7-yl]oxy]phenyl]-1-methyl-pyrazol-4-yl]pyrazolo[1,5-a]pyrimidine-3-carboxamide] are 0.4 nM, 0.27 nM and 12 nM.
For `Cn1cc(NC(=O)c2cnn3cccnc23)c(-c2cc(Oc3cncc(CN)c3)ccc2OC(F)F)n1` [Example 77, N-[3-[5-[[5-(aminomethyl)-3-pyridyl]oxy]-2-(difluoromethoxy)phenyl]-1-methyl-pyrazol-4-yl]pyrazolo[1,5-a]pyrimidine-3-carboxamide], in that order: 2.6 nM, 2.5 nM and 33 nM.
As for `CN(C)C(=O)c1cc(Oc2ccc(OC(F)F)c(-c3nn(C)cc3NC(=O)c3cnn4cccnc34)c2)ccc1Cl` [Example 78, N-[3-[5-[4-chloro-3-(dimethylcarbamoyl)phenoxy]-2-(difluoromethoxy)phenyl]-1-methyl-pyrazol-4-yl]pyrazolo[1,5-a]pyrimidine-3-carboxamide], the inhibitory constant (Ki) in experiment [1] turned out to be 0.31 nM; in experiment [3], 0.22 nM. In experiment [2], the IC50 is 21 nM.
Regarding `Cn1cc(NC(=O)c2cnn3cccnc23)c(-c2cc(Oc3cccc(C(=O)N4CCNCC4)c3)ccc2OC(F)F)n1` [Example 80, N-[3-[2-(difluoromethoxy)-5-[3-(piperazine-1-carbonyl)phenoxy]phenyl]-1-methyl-pyrazol-4-yl]pyrazolo[1,5-a]pyrimidine-3-carboxamide], the Ki in experiment [1] and in experiment [3] was 0.35 nM in each case. For the same molecule, the IC50 in experiment [2] turned out to be 61 nM.
`Cn1cc(NC(=O)c2cnn3cccnc23)c(-c2cc(Oc3cccc(C(=O)N4CCC(N5CCOCC5)CC4)c3)ccc2OC(F)F)n1` [Example 81, N-[3-[2-(difluoromethoxy)-5-[3-(4-morpholinopiperidine-1-carbonyl)phenoxy]phenyl]-1-methyl-pyrazol-4-yl]pyrazolo[1,5-a]pyrimidine-3-carboxamide]: the Ki in experiment [1] amounted to 0.47 nM; in experiment [3], 0.48 nM. In addition, the IC50 in experiment [2] was 26 nM.
As for `CN1CCN(C(=O)c2cccc(Oc3ccc(OC(F)F)c(-c4nn(C)cc4NC(=O)c4cnn5cccnc45)c3)c2)CC1` [Example 84, N-[3-[2-(difluoromethoxy)-5-[3-(4-methylpiperazine-1-carbonyl)phenoxy]phenyl]-1-methyl-pyrazol-4-yl]pyrazolo[1,5-a]pyrimidine-3-carboxamide], the Ki in experiment [1] worked out at 0.48 nM; in experiment [3], 0.47 nM. Besides, the IC50 in experiment [2] was 74 nM.
Consider `Cc1cc(Oc2ccc(OC(F)F)c(-c3nn(C)cc3NC(=O)c3cnn4cccnc34)c2)ccc1C(=O)N1CCN(C)CC1` [Example 85, N-[3-[2-(difluoromethoxy)-5-[3-methyl-4-(4-methylpiperazine-1-carbonyl)phenoxy]phenyl]-1-methyl-pyrazol-4-yl]pyrazolo[1,5-a]pyrimidine-3-carboxamide], for which the Ki is 1.3 nM in experiment [1] and 0.4 nM in experiment [3]. In experiment [2], the IC50 is 110 nM.
For `CN1CCN(C(=O)c2ccc(Oc3ccc(OC(F)F)c(-c4nn(C)cc4NC(=O)c4cnn5cccnc45)c3)cc2)CC1` [Example 86, N-[3-[2-(difluoromethoxy)-5-[4-(4-methylpiperazine-1-carbonyl)phenoxy]phenyl]-1-methyl-pyrazol-4-yl]pyrazolo[1,5-a]pyrimidine-3-carboxamide], in that order: 1.1 nM, 0.56 nM and 77 nM.
Take `Cn1cc(NC(=O)c2cnn3cccnc23)c(-c2cc(Oc3cccc(C4CNC4)c3)ccc2OC(F)F)n1` [Example 87, N-[3-[5-[3-(azetidin-3-yl)phenoxy]-2-(difluoromethoxy)phenyl]-1-methyl-pyrazol-4-yl]pyrazolo[1,5-a]pyrimidine-3-carboxamide]: the figures for the Ki in experiment [1] and in experiment [3] were 0.26 nM and 0.41 nM, respectively. Also, the IC50 in experiment [2] amounted to 36 nM.
The corresponding values for `CN(C)C(=O)c1ccc(Oc2ccc(OC(F)F)c(-c3nn(C)cc3NC(=O)c3cnn4cccnc34)c2)cc1` [Example 88, N-[3-[2-(difluoromethoxy)-5-[4-(dimethylcarbamoyl)phenoxy]phenyl]-1-methyl-pyrazol-4-yl]pyrazolo[1,5-a]pyrimidine-3-carboxamide] are 0.31 nM, 0.24 nM and 15 nM.
Regarding `CN1CCN(C(=O)Cn2cc(Oc3ccc(OC(F)F)c(-c4nn(C)cc4NC(=O)c4cnn5cccnc45)c3)cn2)CC1` [Example 90, N-[3-[2-(difluoromethoxy)-5-[1-[2-(4-methylpiperazin-1-yl)-2-oxo-ethyl]pyrazol-4-yl]oxy-phenyl]-1-methyl-pyrazol-4-yl]pyrazolo[1,5-a]pyrimidine-3-carboxamide], the Ki in experiment [1] was found to be 0.59 nM; in experiment [3], 0.31 nM. Further, the IC50 in experiment [2] worked out at 52 nM.
The corresponding values for `Cn1cc(NC(=O)c2cnn3cccnc23)c(-c2cc(Oc3cc(CNCCO)ccc3F)ccc2OC(F)F)n1` [Example 91, N-[3-[2-(difluoromethoxy)-5-[2-fluoro-5-[(2-hydroxyethylamino)methyl]phenoxy]phenyl]-1-methyl-pyrazol-4-yl]pyrazolo[1,5-a]pyrimidine-3-carboxamide] are 0.32 nM, 0.4 nM and 17 nM.
The corresponding values for `CN(CCN1CCOCC1)C(=O)c1cccc(Oc2ccc(OC(F)F)c(-c3nn(C)cc3NC(=O)c3cnn4cccnc34)c2)c1` [Example 92, N-[3-[2-(difluoromethoxy)-5-[3-[methyl(2-morpholinoethyl)carbamoyl]phenoxy]phenyl]-1-methyl-pyrazol-4-yl]pyrazolo[1,5-a]pyrimidine-3-carboxamide] are 1.1 nM, 0.68 nM and 56 nM.
